Experimental findings from paper PMC6010071, “Blocking oestradiol synthesis pathways with potent and selective coumarin derivatives” (Journal of Enzyme Inhibition and Medicinal Chemistry, 2018) are described below.

Each structure is given as a SMILES string. Read-outs that look alike come from different tables or passages of the source.

Holding throughout (assay type): biochemical
For test [1], the target named is T1, MAO-A (Homo sapiens, UniProt P21397).
T1 construct: purchased Sigma-Aldrich (St. Louis, MO)
T1 sequence (P21397 1-527): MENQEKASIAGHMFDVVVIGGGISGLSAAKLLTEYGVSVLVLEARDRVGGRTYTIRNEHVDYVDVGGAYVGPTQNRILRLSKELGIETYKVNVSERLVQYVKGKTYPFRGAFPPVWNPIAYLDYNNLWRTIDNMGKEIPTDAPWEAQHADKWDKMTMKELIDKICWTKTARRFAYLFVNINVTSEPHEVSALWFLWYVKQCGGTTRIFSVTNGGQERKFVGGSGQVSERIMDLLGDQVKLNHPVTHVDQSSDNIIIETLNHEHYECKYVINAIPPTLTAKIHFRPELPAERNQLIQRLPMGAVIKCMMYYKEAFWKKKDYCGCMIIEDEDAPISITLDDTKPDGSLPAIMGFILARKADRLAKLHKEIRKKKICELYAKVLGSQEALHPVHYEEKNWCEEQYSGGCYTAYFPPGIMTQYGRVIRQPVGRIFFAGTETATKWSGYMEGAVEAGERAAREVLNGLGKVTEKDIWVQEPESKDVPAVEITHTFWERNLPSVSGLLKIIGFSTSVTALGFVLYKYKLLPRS
Put plainly: MAO-A inhibition, continuous spectrophotometric assay. Particulars: read-out: MAO-A inhibition at 100 µM. The method, then: (§1) The protocol of continuous spectrophotometric assay by Holt et al. was first used to determine the activity of the proteins. […] The protein was first incubated for 30 min at 37 °C in the chromogenic solution and then the substrate tyramine was introduced at 0.5 mM final plate concentration completing the assay volume. […] The assay should produce absorbance change of ∼0.35[23]. […] These protein concentrations were selected to be used to analyse the molecules 1–9. The analysis conditions followed the above-described assay protocol[23] and the activity of tested molecules was measured at 100 µM for MAO-A and at 10 µM for MAO-B. The analysis was performed as single point measurements and the signal was read by the same instrument at the expected assay maximum indicated by the activity measurements, at 30 min for MAO-A and at 2 h for MAO-B, respectively. […] The observed activity was calculated as inhibition percentage (Table 1).

For test [2], the target named is T2, MAO-B (Homo sapiens, UniProt P27338).
T2 construct: purchased Sigma-Aldrich (St. Louis, MO)
T2 sequence (P27338 1-520): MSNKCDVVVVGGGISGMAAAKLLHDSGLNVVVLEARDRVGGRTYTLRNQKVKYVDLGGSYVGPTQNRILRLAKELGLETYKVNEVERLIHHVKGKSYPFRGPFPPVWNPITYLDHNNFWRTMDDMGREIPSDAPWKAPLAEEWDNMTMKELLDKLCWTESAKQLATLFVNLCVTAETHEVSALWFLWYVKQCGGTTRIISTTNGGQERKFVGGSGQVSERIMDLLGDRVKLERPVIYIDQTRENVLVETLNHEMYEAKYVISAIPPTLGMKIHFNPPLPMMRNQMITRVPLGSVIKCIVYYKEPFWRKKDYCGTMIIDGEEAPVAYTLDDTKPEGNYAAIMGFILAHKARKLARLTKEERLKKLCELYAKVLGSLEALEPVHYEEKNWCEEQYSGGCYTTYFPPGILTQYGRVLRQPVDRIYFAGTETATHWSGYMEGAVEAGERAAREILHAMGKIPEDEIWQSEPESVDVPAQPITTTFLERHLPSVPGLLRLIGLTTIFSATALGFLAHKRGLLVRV
As to the kind of experiment: MAO-B inhibition, continuous spectrophotometric assay. Particulars: single point, read at 2 h. The method, then: as §1

The target in test [3] is T3, Aromatase (CYP19A1), human placental microsomes (Homo sapiens, UniProt P11511).
T3 construct: by using human placental microsomes; from tissue; host or cells: human placental microsomes
T3 sequence (P11511 1-503): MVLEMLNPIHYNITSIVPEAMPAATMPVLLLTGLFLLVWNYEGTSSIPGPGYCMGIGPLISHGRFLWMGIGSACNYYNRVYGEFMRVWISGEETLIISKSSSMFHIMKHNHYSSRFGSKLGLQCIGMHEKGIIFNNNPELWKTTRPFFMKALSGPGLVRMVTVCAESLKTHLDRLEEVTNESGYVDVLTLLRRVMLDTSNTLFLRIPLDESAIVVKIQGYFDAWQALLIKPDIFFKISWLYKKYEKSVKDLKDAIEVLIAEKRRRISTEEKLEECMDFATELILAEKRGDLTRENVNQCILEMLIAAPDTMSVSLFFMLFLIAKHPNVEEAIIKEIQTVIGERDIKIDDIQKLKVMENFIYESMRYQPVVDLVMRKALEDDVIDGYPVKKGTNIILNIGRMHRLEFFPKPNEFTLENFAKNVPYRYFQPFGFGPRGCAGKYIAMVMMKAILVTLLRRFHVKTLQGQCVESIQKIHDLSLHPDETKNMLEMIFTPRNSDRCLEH
As to the kind of experiment: Aromatase activity, [3H]-H2O release from [3H]-androstenedione. Particulars: 50 nM [3H]-androstenedione; inhibitor 60–1000 nM; read-out: Aromatase inhibition ∼ pIC50 (converted). The method, then:
Aromatase (CYP19A1) activity was measured as described previously[22] by using human placental microsomes and 50 nM [3H]-androstenedione as a substrate and inhibitor concentrations in the range of 60–1000 nM. Aromatase activities were measured as released [3H]-H2O in Optiphase Hisafe 2 scintillation liquid (Perkin Elmer, Waltham, MA) with a Wallac 1450 MicroBeta Trilux scintillation counter (Perkin Elmer, Waltham, MA). As a positive control for aromatase inhibition, 1 µM finrozole (generous gift from Olavi Pelkonen, University of Oulu, Finland) was used.

The target of test [4] is T2, MAO-B. As to the kind of experiment: MAO-B inhibition, continuous spectrophotometric assay.
Where [5] appears, read: 100 µM, single point, read at 30 min.
Setting [6] is: 10 µM, read-out: MAO-B inhibition at 10 µM.
The mark [7] stands for this setting: duplicated dilution series, read-out: MAO-B inhibition pIC50 (converted).
[8] abbreviates: restated from pIC50 above 6, read-out: MAO-B inhibition IC50.

As usually defined, the inhibition is the relative decrease from the control value, in per cent. For `COc1ccc(-c2cc3cccc(O)c3oc2=O)cc1` [Compound 1, 8-hydroxy-3–(4-methoxyphenyl)-2H-chromen-2-one], in test [1] (setting [5]), the inhibition at 100 µM came out at 4%. The inhibition at 10 µM in test [2] (setting [6]) turned out to be 48%. Also, the IC50 in test [3] was > 1000 nM.
Consider `O=c1oc2ccc(Cl)cc2cc1-c1cccc(O)c1` [Compound 4, 6-chloro-3–(3-hydroxyphenyl)-2H-chromen-2-one], for which the inhibition at 10 µM in test [2] (setting [6]) was found to be 64%. Besides, the IC50 in test [3] was > 1000 nM.
Regarding `O=c1oc2ccc(O)cc2cc1-c1ccc(O)cc1` [Compound 2, 6-hydroxy-3–(4-hydroxyphenyl)-2H-chromen-2-one], the inhibition at 100 µM in test [1] was -6%. Further, in test [2] (read-out: MAO-B inhibition at 10 µM, 10 µM), the inhibition at 10 µM worked out at 16%. The IC50 in test [3] was > 1000 nM.
As to `COc1ccc2cc(-c3ccc(O)c(F)c3)c(=O)oc2c1` [Compound 6, 3–(3-fluoro-4-hydroxyphenyl)-7-methoxy-2H-chromen-2-one], the inhibition at 100 µM in test [1] (setting [5]) was -1%. Further, the IC50 in test [3] was > 1000 nM; in test [4] (setting [7]), 407 nM; in test [4] (setting [8]) it was < 1000 nM.
With `O=c1oc2ccccc2cc1-c1cccc(O)c1` [Compound 3, 3–(3-hydroxyphenyl)-2H-chromen-2-one], the inhibition at 100 µM in test [1] (setting [5]) is 4%. The inhibition at 10 µM in test [2] (setting [6]) turned out to be 50%. Besides, in test [3], the IC50 is > 1000 nM.
For the compound `COc1ccc2oc(=O)c(-c3ccc(O)c(F)c3)cc2c1` [Compound 7, 3–(3-fluoro-4-hydroxyphenyl)-6-methoxy-2H-chromen-2-one], the inhibition at 100 µM in test [1] (setting [5]) is -11%. Further, the figures for the IC50 in test [3], in test [4] (setting [7]) and in test [4] (setting [8]) were > 1000 nM, 851 nM and < 1000 nM, respectively.
